± gives the uncertainty stated by the source.
Assay: xn = mol fraction of the nth substance listed
Details: for electrical conductivity: 100 kPa; for viscosity: 298.2 K, 101 kPa, x1 = 0.2

CCCCCCCC[n+]1ccccc1.[Br-] + C[C@H](N)C(=O)O + O
Details	electrical conductivity [S/m]
288.15 K, x2 = 0.0008949, x1 = 0.005855	1.24 ± 0.074
288.15 K, x2 = 0.000895, x1 = 0.005791	1.23 ± 0.074
288.15 K, x2 = 0.0008952, x1 = 0.005507	1.2 ± 0.072
288.15 K, x2 = 0.0008955, x1 = 0.005201	1.17 ± 0.07
288.15 K, x2 = 0.0008958, x1 = 0.004877	1.14 ± 0.068
288.15 K, x2 = 0.0008961, x1 = 0.004522	1.1 ± 0.066
288.15 K, x2 = 0.0008965, x1 = 0.004131	1.04 ± 0.063
288.15 K, x2 = 0.0008969, x1 = 0.003704	0.975 ± 0.059
288.15 K, x2 = 0.0008973, x1 = 0.003232	0.884 ± 0.053
288.15 K, x2 = 0.0008977, x1 = 0.002757	0.789 ± 0.047
288.15 K, x2 = 0.0008982, x1 = 0.002255	0.678 ± 0.041
288.15 K, x2 = 0.0008984, x1 = 0.001938	0.603 ± 0.036
288.15 K, x2 = 0.0008988, x1 = 0.001556	0.507 ± 0.03
288.15 K, x2 = 0.0008991, x1 = 0.001181	0.405 ± 0.024
288.15 K, x2 = 0.0008995, x1 = 0.0007571	0.288 ± 0.017
288.15 K, x2 = 0.001794, x1 = 0.002782	0.753 ± 0.045
288.15 K, x2 = 0.001795, x1 = 0.002177	0.623 ± 0.037
288.15 K, x2 = 0.001796, x1 = 0.001292	0.412 ± 0.025
288.15 K, x2 = 0.001796, x1 = 0.001777	0.532 ± 0.032
288.15 K, x2 = 0.001797, x1 = 0.0008214	0.291 ± 0.018
293.15 K, x2 = 0.0008949, x1 = 0.005848	1.41 ± 0.085
293.15 K, x2 = 0.000895, x1 = 0.005786	1.4 ± 0.084
293.15 K, x2 = 0.0008952, x1 = 0.005501	1.37 ± 0.082
293.15 K, x2 = 0.0008955, x1 = 0.005196	1.33 ± 0.08
293.15 K, x2 = 0.0008958, x1 = 0.004871	1.29 ± 0.077
293.15 K, x2 = 0.0008961, x1 = 0.004517	1.25 ± 0.075
293.15 K, x2 = 0.0008965, x1 = 0.004128	1.18 ± 0.071
293.15 K, x2 = 0.0008969, x1 = 0.003703	1.1 ± 0.066
293.15 K, x2 = 0.0008973, x1 = 0.003228	1 ± 0.06
293.15 K, x2 = 0.0008977, x1 = 0.002756	0.894 ± 0.054
293.15 K, x2 = 0.0008982, x1 = 0.002254	0.766 ± 0.046
293.15 K, x2 = 0.0008984, x1 = 0.001937	0.68 ± 0.041
293.15 K, x2 = 0.0008988, x1 = 0.001555	0.568 ± 0.034
293.15 K, x2 = 0.0008991, x1 = 0.001179	0.455 ± 0.027
293.15 K, x2 = 0.0008995, x1 = 0.0007571	0.334 ± 0.02
293.15 K, x2 = 0.001794, x1 = 0.00278	0.851 ± 0.051
293.15 K, x2 = 0.001795, x1 = 0.002175	0.705 ± 0.042
293.15 K, x2 = 0.001796, x1 = 0.001292	0.464 ± 0.028
293.15 K, x2 = 0.001796, x1 = 0.001777	0.602 ± 0.036
293.15 K, x2 = 0.001797, x1 = 0.0008196	0.325 ± 0.02
298.15 K, x2 = 0.0008949, x1 = 0.005843	1.59 ± 0.095
298.15 K, x2 = 0.000895, x1 = 0.005779	1.58 ± 0.095
298.15 K, x2 = 0.0008952, x1 = 0.005494	1.54 ± 0.093
298.15 K, x2 = 0.0008955, x1 = 0.005188	1.5 ± 0.09
298.15 K, x2 = 0.0008958, x1 = 0.004866	1.45 ± 0.087
298.15 K, x2 = 0.0008961, x1 = 0.004511	1.4 ± 0.084
298.15 K, x2 = 0.0008965, x1 = 0.004122	1.32 ± 0.08
298.15 K, x2 = 0.0008969, x1 = 0.003697	1.24 ± 0.074
298.15 K, x2 = 0.0008973, x1 = 0.003225	1.12 ± 0.067
298.15 K, x2 = 0.0008977, x1 = 0.002752	1 ± 0.06
298.15 K, x2 = 0.0008982, x1 = 0.002252	0.857 ± 0.051
298.15 K, x2 = 0.0008984, x1 = 0.001935	0.762 ± 0.046
298.15 K, x2 = 0.0008988, x1 = 0.001553	0.633 ± 0.038
298.15 K, x2 = 0.0008991, x1 = 0.001178	0.509 ± 0.031
298.15 K, x2 = 0.0008995, x1 = 0.0007571	0.36 ± 0.022
298.15 K, x2 = 0.001794, x1 = 0.002776	0.953 ± 0.057
298.15 K, x2 = 0.001795, x1 = 0.002171	0.788 ± 0.047
298.15 K, x2 = 0.001796, x1 = 0.00129	0.518 ± 0.031
298.15 K, x2 = 0.001796, x1 = 0.001774	0.671 ± 0.04
298.15 K, x2 = 0.001797, x1 = 0.0008196	0.36 ± 0.022
303.15 K, x2 = 0.0008949, x1 = 0.005838	1.78 ± 0.11
303.15 K, x2 = 0.000895, x1 = 0.005773	1.77 ± 0.11
303.15 K, x2 = 0.0008952, x1 = 0.005489	1.73 ± 0.1
303.15 K, x2 = 0.0008955, x1 = 0.005185	1.68 ± 0.1
303.15 K, x2 = 0.0008958, x1 = 0.004861	1.62 ± 0.097
303.15 K, x2 = 0.0008961, x1 = 0.004508	1.56 ± 0.094
303.15 K, x2 = 0.0008965, x1 = 0.004119	1.48 ± 0.089
303.15 K, x2 = 0.0008969, x1 = 0.003694	1.38 ± 0.083
303.15 K, x2 = 0.0008973, x1 = 0.003221	1.25 ± 0.075
303.15 K, x2 = 0.0008977, x1 = 0.002748	1.11 ± 0.067
303.15 K, x2 = 0.0008982, x1 = 0.002248	0.952 ± 0.057
303.15 K, x2 = 0.0008984, x1 = 0.001933	0.834 ± 0.05
303.15 K, x2 = 0.0008988, x1 = 0.001553	0.687 ± 0.041
303.15 K, x2 = 0.0008991, x1 = 0.001178	0.563 ± 0.034
303.15 K, x2 = 0.0008995, x1 = 0.0007553	0.418 ± 0.025
303.15 K, x2 = 0.001794, x1 = 0.002774	1.06 ± 0.064
303.15 K, x2 = 0.001795, x1 = 0.002169	0.875 ± 0.052
303.15 K, x2 = 0.001796, x1 = 0.001289	0.574 ± 0.035
303.15 K, x2 = 0.001796, x1 = 0.001774	0.741 ± 0.044
303.15 K, x2 = 0.001797, x1 = 0.0008196	0.4 ± 0.024
308.15 K, x2 = 0.000895, x1 = 0.005759	2.02 ± 0.12
308.15 K, x2 = 0.000895, x1 = 0.005823	2.04 ± 0.12
308.15 K, x2 = 0.0008953, x1 = 0.005478	1.95 ± 0.12
308.15 K, x2 = 0.0008955, x1 = 0.005172	1.88 ± 0.11
308.15 K, x2 = 0.0008958, x1 = 0.00485	1.8 ± 0.11
308.15 K, x2 = 0.0008961, x1 = 0.004497	1.72 ± 0.1
308.15 K, x2 = 0.0008965, x1 = 0.00411	1.63 ± 0.098
308.15 K, x2 = 0.0008969, x1 = 0.003686	1.51 ± 0.091
308.15 K, x2 = 0.0008973, x1 = 0.003214	1.36 ± 0.082
308.15 K, x2 = 0.0008977, x1 = 0.002743	1.2 ± 0.072
308.15 K, x2 = 0.0008982, x1 = 0.002245	1.02 ± 0.061
308.15 K, x2 = 0.0008984, x1 = 0.001928	0.908 ± 0.054
308.15 K, x2 = 0.0008988, x1 = 0.001549	0.78 ± 0.047
308.15 K, x2 = 0.0008991, x1 = 0.001174	0.643 ± 0.039
308.15 K, x2 = 0.0008995, x1 = 0.0007535	0.488 ± 0.029
308.15 K, x2 = 0.001794, x1 = 0.002767	1.15 ± 0.069
308.15 K, x2 = 0.001795, x1 = 0.002166	0.937 ± 0.056
308.15 K, x2 = 0.001796, x1 = 0.001287	0.631 ± 0.038
308.15 K, x2 = 0.001796, x1 = 0.001768	0.805 ± 0.048
308.15 K, x2 = 0.001797, x1 = 0.0008178	0.46 ± 0.028

C[P+](c1ccccc1)(c1ccccc1)c1ccccc1.[Br-] + OCC(O)CO + OCCO
Details	viscosity [mPa·s]
x2 = 0	121 ± 6
x2 = 0.4	455 ± 39
x2 = 0.8	1894 ± 280

From the CheMixHub ionic liquid set
